From ChEMBL document CHEMBL5113481, “Design, synthesis and biological evaluation of quinoline-2-carbonitrile-based hydroxamic acids as dual tubulin polymerization and histone deacetylases inhibitors” (Eur J Med Chem, 2022)
Converted amounts (≈) assume the structure as drawn. The source made the active and inactive calls. The rule behind the calls is not given here.

What was measured:
HCT-116 = assay: Antiproliferative activity against human HCT-116 cells after 72 hrs by CellTiter Glo assay; type: functional, cell-based; details: for GI50: time 72 hrs
HT-29 [1] = assay: Antiproliferative activity against human HT-29 cells after 72 hrs by CellTiter Glo assay; type: functional, cell-based; details: HT-29, 72 h
K562 [2] = assay: Antiproliferative activity against imatinib-resistant human K562 cells over expressing MDR1 after 72 hrs by CellTiter Glo assay; type: functional, cell-based; details: K562, 72 h
SK-OV-3 = assay: Antiproliferative activity against human SK-OV-3 cells after 72 hrs by CellTiter Glo assay; type: functional, cell-based; details: SK-OV-3, 72 h
MIA PaCa-2 = assay: Antiproliferative activity against human MIA PaCa-2 cells after 72 hrs by CellTiter Glo assay; type: functional, cell-based; details: MIA PaCa-2, 72 h
NCI-N87 = assay: Antiproliferative activity against human NCI-N87 cells after 72 hrs by CellTiter Glo assay; type: functional, cell-based; details: NCI-N87, 72 h
MCF7 = assay: Antiproliferative activity against human MCF7 cells after 72 hrs by CellTiter Glo assay; type: functional, cell-based; details: MCF7, 72 h
Histone deacetylase 11 = target: T1, Histone deacetylase 11 (Homo sapiens, UniProt Q96DB2); assay: Inhibition of HDAC11 (unknown origin) measured by fluorometry assay
T1 sequence (Q96DB2 whole entry): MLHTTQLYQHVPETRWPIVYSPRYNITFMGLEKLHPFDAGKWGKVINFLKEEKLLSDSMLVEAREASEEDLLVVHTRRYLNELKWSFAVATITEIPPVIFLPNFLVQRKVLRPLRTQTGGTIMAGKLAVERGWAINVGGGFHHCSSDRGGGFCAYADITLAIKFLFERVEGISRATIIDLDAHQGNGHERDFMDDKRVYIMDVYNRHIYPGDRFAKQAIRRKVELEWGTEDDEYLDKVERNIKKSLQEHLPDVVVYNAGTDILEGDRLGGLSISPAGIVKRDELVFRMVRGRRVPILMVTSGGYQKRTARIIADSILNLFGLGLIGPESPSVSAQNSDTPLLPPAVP

K562 [3] = assay: Antiproliferative activity against human K562 cells after 72 hrs by CellTiter Glo assay; type: functional, cell-based; details: K562, 72 h
[4] = Metabolic stability in rat liver microsomes assessed as half-life measured upto 6 hrs in presence of NADPH generating system by HPLC-MS/MS analysis; type: ADME, Microsome
[5] = Solubility of compound in water; type: physicochemical
Histone deacetylase 8 = target: T2, Histone deacetylase 8 (Homo sapiens, UniProt Q9BY41); assay: Inhibition of HDAC8 (unknown origin) measured by fluorometry assay
T2 sequence (Q9BY41 whole entry): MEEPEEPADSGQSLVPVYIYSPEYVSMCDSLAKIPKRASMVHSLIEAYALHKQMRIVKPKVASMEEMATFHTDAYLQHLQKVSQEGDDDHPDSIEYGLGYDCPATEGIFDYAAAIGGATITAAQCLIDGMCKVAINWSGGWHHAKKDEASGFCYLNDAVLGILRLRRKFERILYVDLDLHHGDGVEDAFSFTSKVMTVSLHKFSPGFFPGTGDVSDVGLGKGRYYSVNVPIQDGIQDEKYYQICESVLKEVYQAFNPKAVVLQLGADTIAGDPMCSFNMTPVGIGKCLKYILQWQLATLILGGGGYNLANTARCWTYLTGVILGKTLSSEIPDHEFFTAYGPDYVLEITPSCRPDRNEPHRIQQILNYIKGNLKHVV

MDA-MB-231 = assay: Antiproliferative activity against human MDA-MB-231 cells after 72 hrs by CellTiter Glo assay; type: functional, cell-based; details: MDA-MB-231, 72 h
A549 = assay: Antiproliferative activity against human A549 cells after 72 hrs by CellTiter Glo assay; type: functional, cell-based; details: A549, 72 h
[6] = Metabolic stability in human liver microsomes assessed as intrinsic clearance per mg protein measured upto 6 hrs in presence of NADPH generating system by HPLC-MS/MS analysis; type: ADME, Microsome; details: read-out: CLH
HT-29 [7] = assay: Induction of mitochondrial dysfunction in human HT-29 cells at 2 nM measured after 48 hrs by JC-1 staining based flow cytometry; type: functional, cell-based
HT-29 [8] = assay: Cell cycle arrest in human HT-29 cells assessed as accumulation of cells in G2/M phase at 5 nM measured after 24 hrs by PI staining based flow cytometry method; type: functional
[9] = Metabolic stability in human liver microsomes assessed as half-life measured upto 6 hrs in presence of NADPH generating system by HPLC-MS/MS analysis; type: ADME, Microsome
[10] = Metabolic stability in rat liver microsomes assessed as intrinsic clearance per mg protein measured upto 6 hrs in presence of NADPH generating system by HPLC-MS/MS analysis; type: ADME, Microsome; details: read-out: CLH
HT-29 [11] = assay: Cell cycle arrest in human HT-29 cells assessed as accumulation of cells in G2/M phase at 0.1 to 5 nM measured after 24 hrs by PI staining based flow cytometry method; type: functional; details: dose 0.1-5 nM, DDE = dose-dependent effect
[12] = target: T3, Protein deacetylase HDAC6 (Homo sapiens, UniProt Q9UBN7); assay: Inhibition of HDAC6 (unknown origin) measured by fluorometry assay
T3 sequence (Q9UBN7 whole entry): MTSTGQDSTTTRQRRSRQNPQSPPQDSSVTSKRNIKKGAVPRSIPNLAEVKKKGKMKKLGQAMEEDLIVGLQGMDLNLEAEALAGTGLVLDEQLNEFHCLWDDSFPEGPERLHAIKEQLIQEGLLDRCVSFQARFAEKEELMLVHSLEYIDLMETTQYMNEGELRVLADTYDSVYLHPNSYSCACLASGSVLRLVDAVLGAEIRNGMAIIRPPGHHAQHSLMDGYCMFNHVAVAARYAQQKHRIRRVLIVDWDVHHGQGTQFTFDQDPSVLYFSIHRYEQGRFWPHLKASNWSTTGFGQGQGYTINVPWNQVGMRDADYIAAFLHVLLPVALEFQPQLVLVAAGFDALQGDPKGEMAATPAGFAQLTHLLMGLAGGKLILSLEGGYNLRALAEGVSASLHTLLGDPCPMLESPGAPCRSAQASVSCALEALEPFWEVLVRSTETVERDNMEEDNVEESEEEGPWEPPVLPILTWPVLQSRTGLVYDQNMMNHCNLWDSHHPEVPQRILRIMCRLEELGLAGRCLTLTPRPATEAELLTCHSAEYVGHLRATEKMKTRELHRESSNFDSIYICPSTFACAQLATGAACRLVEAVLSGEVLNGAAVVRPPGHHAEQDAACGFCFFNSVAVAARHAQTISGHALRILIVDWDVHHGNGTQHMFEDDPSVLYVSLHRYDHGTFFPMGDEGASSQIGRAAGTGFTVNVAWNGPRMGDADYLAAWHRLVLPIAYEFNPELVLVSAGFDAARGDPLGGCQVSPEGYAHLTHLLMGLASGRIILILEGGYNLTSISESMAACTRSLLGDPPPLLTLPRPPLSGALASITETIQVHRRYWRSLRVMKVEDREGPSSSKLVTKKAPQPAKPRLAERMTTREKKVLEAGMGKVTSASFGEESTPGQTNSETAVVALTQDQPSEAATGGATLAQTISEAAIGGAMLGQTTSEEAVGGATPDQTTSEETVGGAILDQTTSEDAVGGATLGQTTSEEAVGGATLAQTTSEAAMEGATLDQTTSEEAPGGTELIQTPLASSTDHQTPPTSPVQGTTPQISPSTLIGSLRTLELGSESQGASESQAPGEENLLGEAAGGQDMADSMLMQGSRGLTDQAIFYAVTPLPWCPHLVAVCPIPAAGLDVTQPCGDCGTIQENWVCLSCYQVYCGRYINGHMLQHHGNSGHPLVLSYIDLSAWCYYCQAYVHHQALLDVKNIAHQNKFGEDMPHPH

Tubulin = assay: Inhibition of tubulin polymerization in human HeLa cells assessed as microtubule network polymerization after 30 mins by immunofluorescence analysis; type: cell-based

Structure (SMILES): COc1ccc(/C=C\c2cc(OC)c(OC)c(OC)c2)cc1O [COMBRETASTATIN A4]
- GI50 (HCT-116; Homo sapiens, HCT-116): 2.4 nM
- IC50 (HT-29 [1]): > 10000 nM
- IC50 (K562 [2]): 25 nM
- IC50 (SK-OV-3): 6 nM
- IC50 (MIA PaCa-2): 8 nM
- IC50 (NCI-N87): 11 nM
- IC50 (MCF7): 172 nM

Structure (SMILES): COc1ccc(N(C)c2nc(C)nc3ccccc23)cc1/C=C/C(=O)NO
- IC50 (Histone deacetylase 11): 3200 nM
- IC50 (K562 [3]): 0.38 nM
- GI50 (HCT-116; Homo sapiens, HCT-116): 0.6 nM
- IC50 (HT-29 [1]): 0.66 nM
- half-life [4]: 3.53 h
- solubility [5]: 65 µg/mL (≈ 178 µM)
- IC50 (K562 [2]): 1.63 nM
- IC50 (SK-OV-3): 0.3 nM
- IC50 (Histone deacetylase 8): 280 nM
- IC50 (MIA PaCa-2): 1.1 nM
- IC50 (MDA-MB-231): 0.55 nM
- IC50 (A549): 0.51 nM
- IC50 (NCI-N87): 0.17 nM
- microsomal CLint [6]: 1.28 µL/min/mg
- Activity (HT-29 [7]): Active
- Activity (HT-29 [8]): >95%
- half-life [9]: 9 h
- IC50 (MCF7): 0.8 nM
- microsomal CLint [10]: 3.27 µL/min/mg
- Activity (HT-29 [11]): Dde
- IC50 [12]: 2000 nM

Structure (SMILES): COc1ccc(N(C)c2cc(C#N)nc3ccccc23)cc1/C=C/C(=O)NOC1CCCCO1 (stereo unspecified)
- GI50 (HCT-116; Homo sapiens, HCT-116): 4.91 nM

Structure (SMILES): COc1ccc(N(C)c2cc(C#N)nc3ccccc23)cc1/C=C/CCC(=O)NO
- GI50 (HCT-116; Homo sapiens, HCT-116): 34.4 nM

Structure (SMILES): COc1ccc(Cn2ccc3ccc(C(=O)NO)cc32)cc1
- IC50 (K562 [3]): 2010 nM
- GI50 (HCT-116; Homo sapiens, HCT-116): 2600 nM
- IC50 (HT-29 [1]): > 10000 nM
- IC50 (K562 [2]): 2200 nM
- IC50 (MIA PaCa-2): > 20000 nM
- IC50 (A549): 2000 nM
- IC50 (NCI-N87): 1500 nM
- IC50 (MCF7): 2980 nM

Structure (SMILES): COc1ccc(N(C)c2cc(C#N)nc3ccccc23)cc1I
- GI50 (HCT-116; Homo sapiens, HCT-116): 24.6 nM

Structure (SMILES): COc1ccc(N(C)c2cc(C#N)nc3ccccc23)cc1C#CCCC(=O)NO
- GI50 (HCT-116; Homo sapiens, HCT-116): 25.2 nM

Structure (SMILES): COc1ccc(N(C)c2cc(C#N)nc3ccccc23)cc1OCC(=O)NO
- GI50 (HCT-116; Homo sapiens, HCT-116): 64.5 nM

Structure (SMILES): COc1ccc(N(C)c2nc(C#N)nc3ccccc23)cc1/C=C/C(=O)NO
- GI50 (HCT-116; Homo sapiens, HCT-116): 1.5 nM

Structure (SMILES): COc1ccc(N(C)c2cc(C)nc3ccccc23)cc1/C=C/C(=O)NOC1CCCCO1 (stereo unspecified)
- GI50 (HCT-116; Homo sapiens, HCT-116): 30.3 nM

Structure (SMILES): COc1ccc(N(C)c2nc(C)nc3ccccc23)cc1/C=C/C(=O)NOC1CCCCO1 (stereo unspecified)
- GI50 (HCT-116; Homo sapiens, HCT-116): 12.5 nM

Structure (SMILES): C=C(c1ccc(OC)c(/C=C/C(=O)NO)c1)c1cc(C)nc2ccccc12
- GI50 (HCT-116; Homo sapiens, HCT-116): 10.1 nM

Structure (SMILES): COc1ccc(N(C)c2cc(C#N)nc3ccccc23)cc1OCCCC(=O)NO
- GI50 (HCT-116; Homo sapiens, HCT-116): 381 nM

Structure (SMILES): COc1ccc(N(C)c2cc(C)nc3ccccc23)cc1/C=C/C(=O)NO
- GI50 (HCT-116; Homo sapiens, HCT-116): 6.3 nM

Structure (SMILES): CC(/C=C/C(=O)NO)=C\[C@@H](C)C(=O)c1ccc(N(C)C)cc1 [TRICHOSTATIN]
- IC50 (K562 [3]): 260 nM
- GI50 (HCT-116): 35 nM
- IC50 (HT-29 [1]): 55 nM
- IC50 (K562 [2]): 90 nM
- IC50 (SK-OV-3): 100 nM
- IC50 (MIA PaCa-2): 200 nM
- IC50 (MDA-MB-231): 91 nM
- IC50 (A549): 80 nM
- IC50 (NCI-N87): 58 nM
- IC50 (MCF7): 54 nM

Structure (SMILES): C=C(c1ccc(OC)c(/C=C/C(=O)NO)c1)c1cc(OC)c(OC)c(OC)c1
- IC50 (K562 [3]): 1.6 nM
- IC50 (HCT-116; Homo sapiens, HCT-116, 72 h): 1.5 nM
- IC50 (HT-29 [1]): 2 nM
- half-life [4]: 4.42 h
- IC50 (K562 [2]): 1.4 nM
- IC50 (SK-OV-3): 4 nM
- IC50 (MIA PaCa-2): 6 nM
- IC50 (MDA-MB-231): 4.6 nM
- IC50 (A549): 2 nM
- IC50 (NCI-N87): 3.2 nM
- microsomal CLint [6]: 0.83 µL/min/mg
- half-life [9]: 14 h
- IC50 (MCF7): 2.2 nM
- microsomal CLint [10]: 2.57 µL/min/mg

Structure (SMILES): C=C(c1ccc(OC)c(O)c1)c1cc(OC)c(OC)c(OC)c1
- IC50 (Tubulin): 6 nM
- GI50 (HCT-116; Homo sapiens, HCT-116): 2.2 nM
- half-life [4]: 4.24 h
- IC50 (K562 [2]): 3 nM
- IC50 (SK-OV-3): 5 nM
- IC50 (A549): 12 nM
- IC50 (NCI-N87): 14 nM
- microsomal CLint [6]: 0.96 µL/min/mg
- half-life [9]: 12 h
- microsomal CLint [10]: 2.73 µL/min/mg
